BindingDB's records for doi:10.1021/jm00060a014 (Upjohn Laboratories, 1993)

Experiment: Binding affinity against [3H]8-OH-DPAT-labeled 5-hydroxytryptamine 1A receptor sites in bovine hippocampus

## CCCN1CCC2c3c(cccc3OC)CCC21 (stereo not drawn) [9-Methoxy-3-propyl-2,3,3a,4,5,9b-hexahydro-1H-benzo[e]indole]
  Ki: 4.4 nM

## CCCN1CCC2c3c(cccc3OC)CC[C@@H]21 (stereo partly drawn) [9-Methoxy-3-propyl-2,3,3a,4,5,9b-hexahydro-1H-benzo[e]indole]
  Ki: 186 nM

## COc1cccc2c1CC[C@@H]1[C@H]2CCN1CC1CC1 [(3aR,9bS)-3-Cyclopropylmethyl-6-methoxy-2,3,3a,4,5,9b-hexahydro-1H-benzo[e]indole]
  Ki: > 1000 nM
